This is an account of results in paper PMC9376960, “Ruthenium(II)–Tris-pyrazolylmethane Complexes Inhibit Cancer Cell Growth by Disrupting Mitochondrial Calcium Homeostasis” (Journal of Medicinal Chemistry, 2022).

Data set [1] has as its system RD. The experiment in a line: MTT antiproliferative assay. It counts as cell-based, human. The conditions noted are these: 72 h, mean ± SD. As for the experimental part:
All of the cell lines were cultivated in DMEM medium (high glucose 4.5 g L^–1, PAA, Pasching, Austria) supplemented with gentamycin (50 μg mL^–1, Serva, Heidelberg, Germany) and 10% heat-inactivated fetal bovine serum (PAA). The medium for MRC5pd30 cells was further supplemented by 1% nonessential amino acids (Sigma-Aldrich, Prague, Czech Republic). All cells were cultured as adherent monolayers in a humidified incubator at 37 °C in a 5% CO2 atmosphere and subcultured twice a week with an appropriate plating density. In vitro antiproliferative activity of Ru complexes was determined by the MTT or, alternatively, SRB assay as already described,[84] after 72 h of incubation of cells with various concentrations of the Ru complex. The reported IC50 values are an average of three independent experiments, each consisting of three replicates per concentration.
Background: Tetrazolium assays rely on reduction of a dye to a coloured formazan, in cell work by metabolically active cells.

Data set [2] relates to CHO-K1. Briefly: MTT assay, wild-type cells. As to conditions: 72 h. It counts as cell-based, Chinese hamster. The source says:
(§1) The human cervical carcinoma HeLa cells and human colorectal carcinoma cells HCT116 were kindly supplied by Professor B. Keppler, University of Vienna (Austria). Human rhabdomyosarcoma RD cells were purchased from the American Type Culture Collection (ATCC, Manassas, VA). Human breast cancer MCF-7 cells, human skin melanoma 518A2 cells, and human MRC5pd30 cells derived from normal lung tissue were purchased from the European Collection of Authenticated Cell Cultures (ECACC) (Salisbury, U.K.). Chinese hamster ovary CHO-K1 cell line (wild type) and its derivative MMC-2 carrying the ERCC3/XPB mutation (NER-deficient) cell line were kindly supplied by Dr. […], Cancer Research Institute, Slovak Academy of Sciences, Bratislava (Slovakia). In vitro antiproliferative activity of Ru complexes was determined by the MTT or, alternatively, SRB assay as already described,[84] after 72 h of incubation of cells with various concentrations of the Ru complex. The reported IC50 values are an average of three independent experiments, each consisting of three replicates per concentration.

Data set [3] relates to MMC-2. Briefly: MTT assay, NER-deficient cells. The class given is cell-based, Chinese hamster. The conditions noted are these: 72 h.
Description: as §1

The subject of data set [4] is HCT116 (3D). Briefly: Cytotoxicity in 3D spheroids (colonospheres), Cell Titer-Glo 3D. The class given is cell-based, human. As for the experimental part:
A spontaneous spheroid formation was used to generate colonospheres derived from the HCT116 cell line. The HCT116 cells were seeded on 96-well ultralow attachment plates (1400 cells/well) and cultivated in a tumor sphere-forming medium (DMEM/F12, supplemented with B27 (Invitrogen), BSA, bFGF (10 ng mL^–1), and EGF (20 ng mL^–1)) for 4 days. After the incubation period, colonospheres were treated with Ru complexes for another 3 days. The viability of colonospheres was determined by the Cell Titer-Glo 3D cell viability assay (Promega) according to the manufacturer’s instructions. The reported IC50 values are the average of three independent experiments, each consisting of three replicates per concentration level. Bright-field images of the spheroids were taken as well to determine the effect on the morphology of the spheroids.
On the technique in general: Cellular ATP, detected with luciferase, serves as a proxy for viable cell number.

Data set [5] has as its system MCF-7. Further details: method as in PMID 30740808. As to conditions: MTT, 72 h; cited from earlier work.
The test system of data set [6] is HeLa. Further details: method as in PMID 30740808. As to conditions: MTT, 72 h; cited from earlier work.
The subject of data set [7] is 518A2. On the set-up: method as in PMID 32555811. The conditions noted are these: MTT, 72 h; cited from earlier work.
In data set [8] the test system is HCT116. On the set-up: method as in PMID 30740808. The conditions noted are these: MTT, 72 h; cited from earlier work.
Data set [9] relates to MRC5pd30. Further details: method as in PMID 30740808. The conditions noted are these: MTT, 72 h; cited from earlier work.
Data set [10] concerns DNA. On the set-up: method as in PMID 25888926, PMID 28623355. The conditions noted are these: cited from earlier work.

In general, IC50 refers to the point on the concentration scale where inhibition reaches its midpoint. In the case of `N.N.[Cl][Pt][Cl]` [cisplatin], the IC50 in [1] is 4.6 ± 0.3 µM; in data set [2], 54 ± 6 µM; in data set [3], 5.5 ± 0.8 µM; in data set [4] (Cell Titer-Glo, spheroids, 72 h of treatment), 44.6 ± 1.8 µM; in [5] it was 13 ± 3 µM; in [6], 14 ± 3 µM. Besides, the IC50 in data set [7] was 2.6 ± 0.7 µM; in data set [8], 8 ± 1 µM; in data set [9], 11.7 ± 0.8 µM. Also, the “effect on the morphology of 3D spheroids” value in [4] (20 µM, 72 h, bright-field images) is “heterogeneous morphology with several dissociated cell clumps”. The “intracellular platinum that reaches the nucleus and binds to DNA” value in data set [10] is recorded as 2–3%.
